Experimental data: US8299252B2, “Pyrazolopyridine and pyrrolopyridine multikinase inhibitors” (Chugai Seiyaku Kabushiki Kaisha, priority 2005, dated 2012)
Values after ≈ are worked out from the molar mass of the structure shown.

Columns and labels:
[1] = tested on: human umbilical vein endothelial cells (HUVEC), VEGF-dependent proliferation; test: VEGF-dependent HUVEC proliferation inhibition assay; format: cell-based; conditions: read-out: 50% proliferation inhibitory concentration (IC50 value) HUVEC (VEGF-dependent), 20 ng/mL of VEGF, 72 hours, WST-1
Description: (§1) The compounds according to the present invention were measured for cancer cell proliferation inhibitory activity and human umbilical vein endothelial cell (HUVEC) proliferation inhibitory activity.
(§2) Test compounds were serially diluted with dimethyl sulfoxide and then diluted 50 times with Ca^2+- and Mg^2+-free phosphate-buffered saline, and 20 μL of each of the resulting solution was dispensed into a 96-well plate. […] Each cell suspension contains approximately 3000 cells/180 μL. These cell suspensions were dispensed to the plate containing the test compounds at 180 μL/well and incubated in a 5% carbon dioxide gas incubator at 37° C. for 72 hours. 20 μL of WST-8 (HCT116, Dojin) or WST-1 (HUVEC, Roche Diagnostics) was added to each well, and absorbance at 450 nm (reference wavelength: 650 nm) was measured.

[2] = Pharmacokinetics test, oral administration; format: in vivo; conditions: female, Balb/c nude, mouse, 100 mg/kg, plasma
Description: The compound according to the present invention and known Compound A were measured for pharmacokinetics. Each of the test compounds was orally administered to each female Balb/c nude mouse at a dose of 100 mg/kg, and concentrations of the compound in plasma 0.5, 2, 7, and 24 hours after the administration were quantitatively measured by LC-MS-MS.

[3] = tested on: human colon cancer cell line HCT116 cells; test: Cell proliferation inhibitory activity, HCT116; format: cell-based; conditions: Homo sapiens, HCT-116, read-out: 50% proliferation inhibitory concentration (IC50 value) HCT116; HCT116, 72 hours, WST-8
Description: as §1, §2

[4] = tested on: human colon cancer cell line HCT116 cells; test: Antitumor test, HCT116 transplanted subcutaneously in nude mice; format: in vivo, female Balb/c nude mouse; conditions: 100 mg/kg oral, once a day for 12 days
Description: A cell suspension of human colon cancer cell line HCT116 cells was prepared using Hanks's solution, and 5.0×10^6 cells thereof were transplanted subcutaneously into the flank of each female Balb/c nude mouse. Oral administration of the test compound (once a day for 12 days) was started when the transplanted tumor volume reached 200 to 250 mm^3. The tumor volume was calculated by the expression: 0.5×(minor axis)^2×(major axis). The tumor growth inhibition ratio of tumor growth of the test compound to tumor growth of the reference group was determined.

[5] = tested on: human umbilical vein endothelial cells (HUVEC), VEGF-independent proliferation; test: VEGF-independent HUVEC proliferation inhibition assay; format: cell-based; conditions: read-out: 50% proliferation inhibitory concentration (IC50 value) HUVEC (VEGF-independent), vascular endothelial cell growth-promoting agent and heparin, 72 hours, WST-1
Description: as §1, §2

[6] = Solubility in fasted state simulated intestinal fluid; format: physicochemical; conditions: pH 6.5, fassif, kinetic from dmso stock, fasted state simulated intestinal fluid (pH6.5), 37° C.
Description: 2 μL of each dimethyl sulfoxide solutions containing test compounds were dispensed into wells of a 96-well plate, and 200 μL of fasted state simulated intestinal fluid (pH6.5) was added to each well. The plate was shaken at 37° C. for 20 hours. The solution was filtered through a membrane filter, and 101 μL of the filtrate was transferred to a UV plate, followed by addition of 100 μL of a solution mixture of ethanol:water=2:1 thereto. Separately, as a standard, 101 μL of a solution prepared by 2 μL of a dimethyl sulfoxide solution, 4 μL of dimethyl sulfoxide, 400 μL of ethanol, and 200 μL of water was transferred to a UV plate, and 100 μL of fasted state simulated intestinal fluid (pH6.5) was added thereto. The solubility was calculated by the following expression: Solubility=[(absorbance of test solution)−blank]/[(absorbance of standard solution)−blank]×165 μM (165 μM is the concentration of the standard solution) Composition of the fasted state simulated intestinal fluid (pH6.5)
The composition was prepared in compliance with the description in E. Galia, et al., Pharm. Res. 1998, 698.
Taurocholic acid (161 mg), L-α-phosphatidylcholine (59 mg), potassium dihydrogen phosphate (0.39 g), and potassium chloride (0.77 g) were added to about 90 mL of water. The resulting solution was adjusted to a pH of 6.5 with a sodium hydroxide aqueous solution and then diluted to a volume of 100 mL with water. The solution was filtered through a membrane filter.

[7] = tested on: choroidal neovascularization; test: Laser coagulation-induced murine choroidal neovascularization model; format: in vivo, C57BL6J mice; conditions: for Average FA score: once a day for three days
Description: Laser coagulation was performed on two- to three-month-old C57BL6J mice (ten mice per group) by using a 408 nm semiconductor laser (DC-3000, Nidek). Both eyes were each irradiated at three positions with a spot size of 170 μm, an exposure time of 0.02 sec, and an output of 200 mW. The drug was orally administered once a day for three days beginning on the day of the laser coagulation. On the next day of the last administration, the mice were intravenously injected with 7 mg/kg of fluorescein. Five minutes after the injection, three fluorescent fundus images of each eye were taken (TRC-501X, Topcon) and stored in a CCD camera having 640×480 pixels as an image file. The total pixel brightness (0 to 1) in regions where fluorescein leakage was detected was used as an index (FA score) of choroidal neovascularization activity. The FA score was calculated by defining reference values such that the pixel brightness in a capillary region of a non-coagulated site is 0 and the pixel brightness on a main branch of the retinal blood vessel is 1.

[8] = tested on: tube formation of human-derived vascular endothelial cells (HUVEC); test: Tube formation inhibition test (angiogenesis assay kit, KURABO); format: cell-based; conditions: 264 h, final concentration 6.4 nM, 11 days, read-out: Tube formation inhibition ratio (%)
Description: The formed tubes were stained with a tube staining kit CD31 (KURABO). The stain image of each well was taken under a microscope, stored in an image file, and measured for the tube formation area using angiogenesis quantitative analysis software of KURABO. The inhibition ratio % of each test compound added to the well was calculated, provided that the ratio of the reference was 100%.

AUC [2]: 247 µg·h/mL
Cmax [2]: 22700 ng/mL
IC50 [3]: 2600 nM
solubility at 20 h [6]: 15 µg/mL (≈ 30.6 µM)
SMILES: O=C(Nc1ccc(Oc2ccnc3[nH]ccc23)cc1)Nc1ccc(CCC(F)F)c(C(F)(F)F)c1 [Compound 12, 1-[4-(3,3-Difluoropropyl)-3-(trifluoromethyl)phenyl]-3-[4-(1H-pyrrolo[2,3-b]pyridin-4-yloxy)phenyl]urea]
IC50 [1]: 5.1 nM
Tumor growth inhibition ratio (%) ([4]; last administration day): 100%
Decrease ratio in body weight (%) ([4]; maximum decrease): 6.5%
IC50 [5]: 270 nM
inhibition of the angiogenesis (in words) ([7]; 50 mg/kg): significantly inhibited
Average FA score ([7]; 50 mg/kg oral): 6.910
inhibition of the angiogenesis (in words) ([7]; 100 mg/kg): significantly inhibited
Average FA score ([7]; 100 mg/kg oral): 6.833
inhibition at 0.0064 µM [8]: 81%
